Laboratory results as given in a melting point compilation (Tetko et al.; mined from patent text by program, amines drawn as free bases though some values may be those of a salt).

Row | Structure (SMILES) | melting point
1 | O=c1oc(-c2cccc(OCCc3ccccc3)c2)cc(O)c1SCCc1ccccc1 | 104 to 106 °C
2 | COCOc1ccccc1OCBr | 40 to 42 °C
3 | CCOC(=O)c1cc2c(C)ccc(O)c2[nH]1 | 211 to 212 °C
4 | O=[N+]([O-])c1ccc(OS(=O)(=O)c2ccccc2I)cc1 | 131 to 133 °C
5 | CCOC(=O)c1cnc2nc(OCC)ccc2c1Cl | 72 to 75 °C
6 | CC(C)(C(=O)c1ccc(C(=O)c2ccc(C(=O)C(C)(C)N3CCOCC3)cc2)cc1)N1CCOCC1 | 145 to 147 °C
7 | CC(C)(C)OC(=O)CN1C(=O)[C@@H](N[C@@H](CCCCNC(=O)OC(C)(C)C)C(=O)O)CSc2ccccc21 | 134 to 135 °C
8 | C=CCNc1nc(NCC(=C)C)c2scc(C)c2n1 | 83 °C
9 | CC(C)NC(=O)c1coc2ccccc2c1=O | 104 to 106 °C
10 | CCC1NC(c2cc(Cl)nc(Cl)c2)=NC(=O)C1C(=O)OC (stereo unspecified) | 188 to 189 °C
11 | C=C(C)c1cn(C2OC(CO)C(O)C2O)c(=O)[nH]c1=O (stereo unspecified) | 212 to 215 °C
12 | Cn1nnnc1-c1cnc2ccc(F)cc2c1O | > 300 °C
13 | O=c1cnn(-c2cc(Cl)c(C(c3ccc(Cl)cc3)c3nc(-c4ccccc4)no3)c(Cl)c2)c(=O)[nH]1 (stereo unspecified) | 128 °C
14 | Nc1cccc(-c2nc3n(n2)Cc2ccccc2-3)c1 | 163 to 164 °C
15 | CCCc1c(OCC(O)COc2cc(N)c(C)cc2Cl)ccc(C(C)=O)c1O (stereo unspecified) | 94 to 95 °C
16 | CONc1cc(Cl)nc(S(C)(=O)=O)n1 | 135 °C
17 | CCOCCn1cc2c(C3C(=O)Nc4ccc(Cl)cc43)nc(NCC(C)O)nc2n1 (stereo unspecified) | > 300 °C
18 | O=C1CCn2c(CCc3ccccc3)nc3cccc1c32 | 112 to 113 °C
19 | Cc1ccc(CSc2nc3cc4c(cc3[nH]2)OC(C)O4)nc1 | 147 to 148 °C
20 | CCc1c(-c2ccc(OCc3ccccc3)cc2)cn2cccc(OCc3ccccc3)c12 | 104 to 105 °C
21 | Cc1oc(-c2ccccc2)nc1COc1ccc(CCCC#N)cc1 | 73 to 74 °C
22 | CNc1nc(NC)nc(OC(F)(F)F)n1 | 68 to 72 °C

Row | Structure (SMILES) | melting point
23 | COc1cc2c(Nc3ccc(Cl)cc3F)ncnc2cc1OCCN(C)c1cc(C)nc(C)c1 | 208 to 212 °C
24 | CN1Cc2cncn2-c2cccnc2C1=O | 199 to 201 °C
25 | O=c1c2cnc3ccc(F)cc3c2on1-c1ccccc1 | 174 °C
26 | CC(Cc1ccc(S(=O)(=O)NC(=O)NC2CCCCC2)cc1)NC(=O)N1Cc2ccccc2C1=O (stereo unspecified) | 197 to 198 °C
27 | CC1=CN(C)C2=NC(C)N(c3ccc(C#N)cc3)C2=C1 (stereo unspecified) | 260 to 262 °C
28 | O=C1Nc2cc(F)c(F)cc2N2CCNCC12 (stereo unspecified) | 226 to 228 °C
29 | COc1ccc(CNc2nc(CCC(=O)O)nc3sc(Cl)cc23)cc1Cl | 126 °C
30 | O=C(O)CCSc1cccc(Br)c1 | 87 to 88 °C
31 | CSCc1ccccc1S(N)(=O)=O | 119 to 124 °C
32 | N#Cc1ccc(-c2ccc(Cl)cc2)nc1Cl | 179 to 181 °C
33 | CCCCCCCCCCCCCCCCCCNCC(O)CO (stereo unspecified) | 81 to 83 °C
34 | O=C1Nc2ccc([N+](=O)[O-])cc2C1c1ncnc2nn(C3CCCCC3)cc12 (stereo unspecified) | 301 to 304 °C
35 | Cc1nc2cc(-c3ccc(C=C4SC(=O)NC4=O)cn3)cc(OCc3ccccc3)c2o1 | 245 °C
36 | COc1ccc(N2C(=O)C(=C3CCCN3)c3ccccc32)cc1F | 169 to 171 °C
37 | COc1ccc2c(C(=O)c3cc(OC)c(OC)c(OC)c3)c(-c3ccc(OC)c(O)c3)[nH]c2c1 | 189 to 190 °C
38 | COc1ccc(S(=O)(=O)CC(O)(CS(=O)(=O)c2ccc(-c3ccccc3)cc2)C(=O)NO)cc1 (stereo unspecified) | 72 to 76 °C
39 | O=c1[nH]c2ccc(-c3cccc([N+](=O)[O-])c3)cc2n1Cc1ccccc1 | 202 to 203 °C
40 | O=Cc1nccc(OCc2ccccc2)c1OCc1ccccc1 | 103 to 104 °C
41 | CCOC(=O)c1cc(-c2ccc(Cl)c(Cl)c2)nn1C | 122 to 124 °C
42 | CN(C)CCN1C(=O)C(NC(=O)c2ccc(Cl)cc2)C(C)(C)SC1=S (stereo unspecified) | 152 to 153 °C
43 | Fc1cc(Br)c2ccccc2c1Cl | 75 to 76 °C
44 | CC(C)Sc1nc(OS(C)(=O)=O)cs1 | 83 to 85 °C

Row | Structure (SMILES) | melting point
45 | C=C(C)n1c(=O)n(-c2ccc(CCNC[C@H](O)COc3ccc(O)cc3)cc2)c2ncccc21 | 62 to 64 °C
46 | CC(C)(C)C(=NO)Nc1ccc(Cl)nn1 | 128 to 130 °C
47 | C#CCN1CCC=C(c2ccc(C(C)(C)CCCCCC)cc2O)C1 | 116 to 117 °C
48 | Cc1cc(-c2ccc(F)cc2)nc(O)n1 | 265 to 268 °C
49 | ClCc1ncn2c1CN=C(c1ccccc1Cl)c1cc(Cl)ccc1-2 | 165 °C
50 | O=C(CN1C(=O)c2ccccc2C1=O)Nc1ccccc1C(=O)N1CCCc2ccccc21 | 130 °C
51 | CCCOc1c(OCc2ccccc2)cc(C2CCC(c3cc(OC)c(OC)c(OC)c3)O2)cc1S(=O)(=O)CC(C)O (stereo unspecified) | 103 to 110 °C
52 | COc1ccc2c(c1)c(Cc1cc(=O)n(-c3cccc([N+](=O)[O-])c3)[nH]1)c(C)n2C(=O)c1ccc(Cl)cc1 | 95 to 97 °C
53 | CCCCn1nc(-c2ccc(F)cc2)c(-c2ccc(S(C)(=O)=O)cc2)cc1=O | 111 to 113 °C
54 | COCc1cc([N+](=O)[O-])ccc1OCc1ccccc1 | 108 °C
55 | O=C(O)CCc1oc(-n2cncn2)nc1-c1ccc(Cl)cc1 | 168 to 169 °C
56 | Cc1cccc2cccc(O)c12 | 56 to 59 °C
57 | N#Cn1c(=O)c2ccccc2n(CCCCN2CCC(OC(c3ccccc3)c3ccccc3)CC2)c1=O | 106 to 107 °C
58 | CSCC[C@@H](NC(=O)[C@H](Cc1ccc(O)cc1)NC(=O)OC(C)(C)C)C(=O)NCC(=O)Oc1c(Cl)c(Cl)c(Cl)c(Cl)c1Cl | 175 to 176 °C
59 | NC(=O)N(O)CCNC(=O)c1ccc(Oc2ccccc2)o1 | 160 to 163 °C
60 | Cn1c(=O)c(=O)[nH]c2cc([N+](=O)[O-])ccc21 | 356 °C
61 | COC(=O)CNc1cc(F)cc(F)c1 | 75 to 77 °C
62 | CCCCNC(=O)c1cnc2ccccn2c1=O | 127 to 130 °C
63 | O=c1[nH]c2cc(Cl)ccc2c(O)c1-c1cccc(OCc2ccccc2)c1 | 293 to 295 °C
64 | CC1(C)OC(=O)N2CCN(C(=O)OCc3ccccc3)CC21 (stereo unspecified) | 86 to 88 °C
65 | Cc1c(Cl)cccc1-n1c(=O)[nH]c2cccnc21 | 224 to 225 °C
66 | COc1ccc(C(=O)NC(=O)Nc2ccc3c(c2)NC(=O)/C3=C/c2ccco2)cc1 | 278 to 283 °C

Row | Structure (SMILES) | melting point
67 | I/C(=C/C=C(/I)SCc1ccccc1)SCc1ccccc1 | 111 to 112 °C
68 | O=c1c2cc(Cl)c(Cl)cc2nc2n1CS(=O)(=O)N2 | > 300 °C
69 | CCC(CC)Nc1cc(C(=O)O)ccc1N1C(=O)CCC1(CO)CCO (stereo unspecified) | 188 to 190 °C
70 | O=[N+]([O-])c1ccc(NCCc2ccccc2)cc1 | 57 to 59 °C
71 | COc1cc(C(=O)COC(C)=O)ccc1O | 115 to 117 °C
72 | Cc1ccc2c3c(ccc2n1)OCC(CNCC1CCc2[nH]c4cc(Cl)c(F)cc4c2C1)O3 (stereo unspecified) | 243 to 244 °C
73 | Cc1cc(C(C)(C)CCl)c(C)nn1 | 57 to 59 °C
74 | CCCCC(=N)NC(=S)Nc1ccc(Cl)cc1 | 164 to 166 °C
75 | COc1ccc(S(=O)(=O)Nc2c(C(=O)NO)cc(C)c(Cc3ccccc3)c2C#N)cc1 | 175 °C
76 | CSc1cc(C)nc(SC)c1NC(=O)CCCSc1nc2ccccc2o1 | 149 to 150 °C
77 | Cc1cc(NCC(C)C)c2[nH]ncc2n1 | 162 to 164 °C
78 | CCOc1ccc(-c2ncc(C#N)c(Cl)n2)cc1 | 191 to 192 °C
79 | CCN(CC)c1ccc(NC(=S)N(C)N)cn1 | 147 to 149 °C
80 | Cn1c2ccccc2c2c(N)c3c(nc21)C=CC3=O | 279 to 280 °C
81 | [N-]=[N+]=Nc1ccc(-c2ccc(-c3nc(N)nc(N)n3)cc2)cc1 | 230 °C
82 | COc1ccc(C(=O)Nc2ccccc2)cc1NC(=S)NC(=O)c1ccccc1 | 219 to 222 °C
83 | NS(=O)(=O)c1ccsc1C1=CC(=O)CCC1 | 140 to 147 °C
84 | CCOCc1nc2c(N)nc3cc(OCc4ccccc4)ccc3c2n1CC1COC(C)(C)O1 (stereo unspecified) | 186 to 187 °C
85 | C#Cc1ccccc1-c1ccc(I)cc1 | 114 °C
86 | COC(=O)c1cc(-c2ccc(OCc3cccnc3)cc2O[C@H](CCC(=O)O)c2ccccc2C)n[nH]1 | 155 to 156 °C
87 | COc1cc(-c2cnc3[nH]cc(C(=O)CCC(C)OC)c3n2)cc(OC)c1OC (stereo unspecified) | 150 to 151 °C
88 | COc1ccc(Br)cc1N1CCCC1 | 47 to 48 °C

Row | Structure (SMILES) | melting point
89 | CC(=O)c1nc2cccc(Oc3ccccc3)c2cc1OCc1ccccc1 | 116 to 118 °C
90 | CCCCc1c(Cl)nc(NC=O)nc1Cl | 82 to 83 °C
91 | CCOC(=O)/C(F)=C/c1ccc(Br)cc1 | 59 to 61 °C
92 | CCC(Br)C(=O)c1ccc(OC)c(OCC(F)(F)F)c1 (stereo unspecified) | 120 to 121 °C
93 | O=C1CC(c2ccc(Cl)c(Cl)c2)Cc2[nH]c3ccc(Cl)cc3c(=O)c21 (stereo unspecified) | > 325 °C
94 | SCCC1c2ccccc2-c2ccccc21 | 38 to 40 °C
95 | CCn1nc(C)c2c1C1=NCCN1C(C)=N2 | 168 to 170 °C
96 | O=C(O)CC1=CSCCS1 | 82 °C
97 | COC1(c2cc(F)cc(OCC#Cc3ccc(Cc4nc(-c5ccccc5)c(-c5ccc(S(N)(=O)=O)cc5)o4)cc3)c2)CCOCC1 | 86 to 100 °C
98 | COc1ccc(/C=C(/C#N)c2c(F)cccc2F)cc1OC1CCCC1 | 79.1 to 81 °C
99 | Cc1cccc(NC(=N)Nc2cccc(C)c2)c1 | 105 to 106 °C
100 | O=C(O)C(Cl)(Cl)CCCCCCCCCCCCS(=O)c1ccccc1 (stereo unspecified) | 68 °C
101 | Nc1cc(-c2c(-c3ccc(F)cc3)ncn2CCCN2CCOCC2)ccn1 | 186 to 187 °C
102 | Cc1cc(-n2c(C)nc3ccccc32)cc2c1NC(=O)CC2C (stereo unspecified) | 248 to 252 °C
103 | O=C(OCc1ccccc1)[C@H](CCCCO)N1C(=O)c2ccccc2C1=O | 106 to 108 °C
104 | COCCN1CCN(CCCOc2ccc3nc(C#N)nc(NCC(C)(C)C)c3c2)CC1 | 92 to 94 °C
105 | CN(C)C(=O)N(C)c1cc(C(C)(C)C)on1 | 90 to 91 °C
106 | C=CCOc1ccc2c(C)cc(=O)oc2c1C | 107 to 108 °C
